Results reported in ChEMBL document CHEMBL5154726, “Identification of triazolopyridine derivatives as a new class of AhR agonists and evaluation of anti-psoriasis effect in a mouse model” (Eur J Med Chem, 2022).
≈ marks a conversion by molar mass, not a printed value. Calls of active or inactive are those of the source. No cut-off for these calls is given here.

Assays:
[1] = system: Mus musculus; assay: Anti-psoriatic activity in IMQ-induced BALB/c psoriasis mouse model assessed as reduction in erythema at 0.1 to 1 % treated topically by H and E staining based analysis; type: functional, organism-based; conditions: dose 0.1-1 %
[2] = Half life in Sprague-Dawley rat at 5 mg/kg, iv measured up to 24 hrs by LC-MS/MS analysis; type: ADME, organism-based; conditions: in vivo
[3] = Solubility of the compound incubated for 48 hrs under shaking condition by LC/MS analysis; type: physicochemical
[4] = Cmax in Sprague-Dawley rat at 10 mg/kg, po measured up to 24 hrs by LC-MS/MS analysis; type: ADME, organism-based; parameters: time < 24 hrs, dose 10 mg/kg, route po; conditions: in vivo
[5] = Apparent permeability in MDCK cells at 50 uM incubated for 90 mins by LC/MS analysis; type: ADME, cell-based, Canis lupus familiaris; conditions: dog
[6] = target: T1, Aryl hydrocarbon receptor (Homo sapiens, UniProt P35869); assay: Induction of Ahr signalling in human HaCaT cells assessed as upregulation of FLG expression incubated for 48 hrs; type: cell-based
T1 sequence (P35869 whole entry): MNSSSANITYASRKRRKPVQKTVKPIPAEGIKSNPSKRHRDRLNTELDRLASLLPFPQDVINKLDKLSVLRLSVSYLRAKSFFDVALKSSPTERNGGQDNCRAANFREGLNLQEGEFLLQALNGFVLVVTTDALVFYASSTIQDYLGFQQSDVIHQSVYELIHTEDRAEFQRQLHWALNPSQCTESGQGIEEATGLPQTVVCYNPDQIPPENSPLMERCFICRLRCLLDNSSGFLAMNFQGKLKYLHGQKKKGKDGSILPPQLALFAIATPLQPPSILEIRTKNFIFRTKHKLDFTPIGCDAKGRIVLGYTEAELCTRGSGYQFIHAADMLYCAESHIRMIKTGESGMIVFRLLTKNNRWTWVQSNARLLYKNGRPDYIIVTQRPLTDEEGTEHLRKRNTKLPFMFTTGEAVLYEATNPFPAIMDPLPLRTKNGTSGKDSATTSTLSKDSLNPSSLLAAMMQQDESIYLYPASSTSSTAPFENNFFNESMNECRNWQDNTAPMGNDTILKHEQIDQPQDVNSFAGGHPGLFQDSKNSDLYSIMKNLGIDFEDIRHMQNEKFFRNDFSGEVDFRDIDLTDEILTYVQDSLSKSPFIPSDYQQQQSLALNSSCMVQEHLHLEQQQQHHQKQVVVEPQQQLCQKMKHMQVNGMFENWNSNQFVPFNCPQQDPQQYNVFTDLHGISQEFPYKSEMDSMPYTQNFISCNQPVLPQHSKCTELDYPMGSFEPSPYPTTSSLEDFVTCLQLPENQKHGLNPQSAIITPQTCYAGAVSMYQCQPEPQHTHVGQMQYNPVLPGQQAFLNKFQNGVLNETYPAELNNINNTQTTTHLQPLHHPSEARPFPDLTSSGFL

[7] = target: T1, Aryl hydrocarbon receptor; assay: Induction of Ahr signalling in human HaCaT cells assessed as upregulation of HRNR expression incubated for 48 hrs; type: cell-based
[8] = Half life in Sprague-Dawley rat at 10 mg/kg, po measured up to 24 hrs by LC-MS/MS analysis; type: ADME, organism-based; conditions: in vivo
[9] = target: T1, Aryl hydrocarbon receptor; assay: Induction of Ahr nuclear translocation in human HaCaT cells at 10 uM incubated for 90 mins by immunofluorescence analysis; type: cell-based; conditions: 1.5 h
[10] = target: Cytochrome P450 2C9 (Homo sapiens, UniProt P11712); assay: Inhibition of CYP2C9 in human liver microsomes in presence of NADPH by LC-MS/MS analysis; type: ADME, Microsome
Sequence of Cytochrome P450 2C9 (P11712 whole entry): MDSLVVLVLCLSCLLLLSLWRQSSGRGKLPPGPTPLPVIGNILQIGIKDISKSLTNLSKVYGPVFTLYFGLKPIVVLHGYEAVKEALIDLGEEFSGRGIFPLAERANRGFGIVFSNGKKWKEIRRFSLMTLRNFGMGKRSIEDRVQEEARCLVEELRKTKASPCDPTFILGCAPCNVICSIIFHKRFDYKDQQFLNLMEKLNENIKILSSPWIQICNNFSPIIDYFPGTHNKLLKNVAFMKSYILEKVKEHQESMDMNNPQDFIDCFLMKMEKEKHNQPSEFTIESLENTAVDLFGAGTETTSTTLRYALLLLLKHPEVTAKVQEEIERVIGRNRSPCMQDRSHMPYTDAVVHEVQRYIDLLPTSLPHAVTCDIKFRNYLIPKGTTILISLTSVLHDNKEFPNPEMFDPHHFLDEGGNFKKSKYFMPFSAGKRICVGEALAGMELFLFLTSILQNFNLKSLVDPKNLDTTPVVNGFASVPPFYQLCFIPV

[11] = MRT in Sprague-Dawley rat at 10 mg/kg, po measured up to 24 hrs by LC-MS/MS analysis; type: ADME, organism-based; conditions: in vivo
[12] = system: Mus musculus; assay: Anti-psoriatic activity in IMQ-induced BALB/c psoriasis mouse model assessed as reduction in skin thickening at 0.1 to 1 % treated topically by H and E staining based analysis; type: functional, organism-based; conditions: dose 0.1-1 %
[13] = Volume of distribution at steady state in Sprague-Dawley rat at 5 mg/kg, iv measured up to 24 hrs by LC-MS/MS analysis; type: ADME, organism-based; conditions: in vivo, read-out: Vdss
[14] = target: T1, Aryl hydrocarbon receptor; assay: Agonist activity at AhR in human recombinant HepG2-Lucia AhR cell incubated for 24 hrs by luciferase reporter gene assay; type: cell-based
[15] = system: Mus musculus; assay: Anti-psoriatic activity in IMQ-induced BALB/c psoriasis mouse model assessed as reduction in IL-17a expression at 0.1 to 1 % treated topically by qRT-PCR analysis; type: functional, organism-based; conditions: dose 0.1-1 %
[16] = Cytotoxicity against human HUVEC cells assessed as reduction in cell viability measured after 72 hrs by MTT assay; type: toxicity, cell-based
[17] = system: Mus musculus; assay: Anti-psoriatic activity in IMQ-induced BALB/c psoriasis mouse model assessed as reduction in skin thickening at 5 to 20 mg/kg, po by H and E staining based analysis; type: functional, organism-based; conditions: dose 5-20 mg/kg
[18] = n-Octanol/water partition coefficient, logD of the compound at 1 mg incubated for 48 hrs under shaking condition by LC/MS analysis; type: physicochemical
[19] = target: NAD(P)H dehydrogenase [quinone] 1 (Homo sapiens) (UniProt P15559); assay: Activation of NQO1 expression in human HaCaT cells up to 10 uM by qRT-PCR analysis; type: cell-based; conditions: filed as activator
Sequence of NAD(P)H dehydrogenase [quinone] 1 (Homo sapiens) (P15559 whole entry): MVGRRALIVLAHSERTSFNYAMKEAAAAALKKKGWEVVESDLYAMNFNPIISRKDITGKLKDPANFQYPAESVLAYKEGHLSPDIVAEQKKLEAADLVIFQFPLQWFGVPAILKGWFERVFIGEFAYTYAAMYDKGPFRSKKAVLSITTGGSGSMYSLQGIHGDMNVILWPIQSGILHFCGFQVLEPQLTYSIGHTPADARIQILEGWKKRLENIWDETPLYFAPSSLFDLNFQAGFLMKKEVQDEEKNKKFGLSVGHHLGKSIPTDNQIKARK

[20] = Cytotoxicity against HEK293T cells assessed as reduction in cell viability measured after 72 hrs by MTT assay; type: toxicity, cell-based, HEK-293T; conditions: human
[21] = target: T2, Nuclear factor erythroid 2-related factor 2 (Homo sapiens) (UniProt Q16236); assay: Activation of Nrf2 expression in human HaCaT cells up to 10 uM by qRT-PCR analysis; type: cell-based; conditions: filed as activator
T2 sequence (whole entry): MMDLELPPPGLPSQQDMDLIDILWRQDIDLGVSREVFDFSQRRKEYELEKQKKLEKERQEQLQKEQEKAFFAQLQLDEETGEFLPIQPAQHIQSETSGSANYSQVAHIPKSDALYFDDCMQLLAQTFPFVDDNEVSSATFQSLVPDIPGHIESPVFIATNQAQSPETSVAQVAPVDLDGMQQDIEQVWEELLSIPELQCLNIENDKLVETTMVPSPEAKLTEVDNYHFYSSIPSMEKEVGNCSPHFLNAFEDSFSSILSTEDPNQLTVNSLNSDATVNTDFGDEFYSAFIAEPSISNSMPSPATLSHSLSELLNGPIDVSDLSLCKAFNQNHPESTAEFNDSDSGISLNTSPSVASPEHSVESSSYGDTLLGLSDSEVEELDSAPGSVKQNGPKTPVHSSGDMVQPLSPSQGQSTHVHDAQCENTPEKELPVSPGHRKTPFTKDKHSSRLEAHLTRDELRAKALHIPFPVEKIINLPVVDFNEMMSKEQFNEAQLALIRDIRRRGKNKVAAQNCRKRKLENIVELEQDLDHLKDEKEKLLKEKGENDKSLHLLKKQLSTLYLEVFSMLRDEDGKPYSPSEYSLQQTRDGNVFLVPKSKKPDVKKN

[22] = Efflux ratio of apparent permeability in MDCK cells; type: ADME, cell-based, Canis lupus familiaris; conditions: dog
[23] = system: Mus musculus; assay: Anti-psoriatic activity in IMQ-induced BALB/c psoriasis mouse model assessed as reduction in scaling at 5 to 20 mg/kg, po by H and E staining based analysis; type: functional, organism-based; conditions: dose 5-20 mg/kg

half-life [2]: 0.81 h | solubility thermodynamic at 48 h [3]: 17.2 µg/mL (≈ 48.6 µM) | Cmax [4]: 685 ng/mL | Papp at 1.5 h, 50 µM [5]: 3.49 ×10⁻⁶ cm/s | Activity [6]: Active | Activity [7]: Active | half-life [8]: 6.97 h | Activity [9]: Active | IC50 [10]: > 10 µM | MRT [11]: 1.82 h | Vd [13]: 1.02 L/kg | EC50 [14]: 30 pM | logD at 48 h [18]: 2.97 | Activity [19]: Active | Activity [21]: Active | efflux ratio [22]: 2.34
Compound: Brc1ccc(-c2nc3ccc(Br)cn3n2)cc1
Activity [1]: Active | Activity [12]: Active | Activity [15]: Active | IC50 at 72 h [16]: > 300 µM | Activity [17]: Active | IC50 at 72 h [20]: > 300 µM | Activity [23]: Active
